From patent publication EP2057185B1, “POLYMYXIN DERIVATIVES AND USES THEREOF” (Northern Antibiotics Oy, priority 2006, dated 2008)
pIC50: −log10 of the molar value. Bridge positions count the residues as written; N and C are the ends. Square brackets hold non-standard residues; d marks the D form. Peptide text beside a SMILES is read from it. * marks the point of attachment. Octanoyl = CCCCCCCC(=O)*; Dab = NCC[C@H](N)C(=O)O; Abu = CC[C@H](N)C(=O)O

What was measured:
Ac. baumannii ATCC19606 = test: MIC by E-strips on Mueller-Hinton agar with or without NAB7061 (4 µg/ml); assay type: cell-based, Acinetobacter baumannii
Experimental: (§1) MICs were determined by using E-strips (Biodisk Ltd., Solna, Sweden) according to the manufacturer's instructions.
(§2) The strains originated from ATCC (11 strains), CCUG (11 strains), and NCTC (The National Collection of Type Cultures, Colindale, U.K.; 2 strains). Eight strains (the F-strains) were purchased from Mobidiag Ltd., Helsinki, Finland.

Ac. baumannii F263 = test: as above; assay type: cell-based, Acinetobacter baumannii
Experimental: as §1, §2

P. vulgaris ATCC13315 = test: as above; assay type: cell-based
Experimental: as §1, §2

S. maltophilia ATCC17444 = test: as above; assay type: cell-based
Experimental: as §1, §2

P. aeruginosa ATCC27853 = test: as above; assay type: cell-based, Pseudomonas aeruginosa
Experimental: as §1, §2

P. aeruginosa CCUG51971 = test: as above; assay type: cell-based, Pseudomonas aeruginosa
Experimental: as §1, §2

P. aeruginosa F58 = test: as above; assay type: cell-based, Pseudomonas aeruginosa
Experimental: as §1, §2

[1] = test system: all strains (17) belonging to the group consisting of E. coli, K. oxytoca, E. cloacae, and C. freundii; test: E-strip MIC, summary over 17 strains of Example 8; assay type: cell-based
Experimental: as §1, §2

[2] = test system: three strains of A. baumannii; test: E-strip MIC, summary over A. baumannii strains of Example 8; assay type: cell-based, Acinetobacter baumannii; conditions: NAB7061 4 µg/ml
Experimental: as §1, §2

[3] = molecular target: brush-border membrane (BBM) of the renal cortex; test: Inhibition of binding of radiolabelled gentamycin to brush-border membrane; parameters: species or system male albino rats; conditions: BBM vesicles, 20 µM [^3H] gentamycin, 60 min at 4°C, pH 7.5
From the text: The binding of the compounds according to this invention to isolated brush-border membrane (BBM) from the renal cortex can be measured indirectly by measuring their ability to inhibit the binding of radiolabelled gentamycin to BBM. Accordingly, the compounds according to this invention that have less affinity to BBM than for example polymyxin B inhibit the binding of radio-labelled gentamycin to a lesser degree than does polymyxin B.
BBM was isolated from the renal cortex of male albino rats by using the Mg^2+/EGTA precipitation technique as described by Nagai et al. (2006). The binding of gentamycin was measured, according to the method described by Nagai et al. (2006) by incubating BBM vesicles (20µl) in 10 mM HEPES (pH 7.5) with 300 mM mannitol in the presence of 20 µM [^3H] gentamycin (American Radiolabeled Chemicals, Inc. (St. Louis, MO, U.S.A.)) with or without the compound to be tested or a positive control. After an incubation of 60 min at 4°C, 1 ml of ice-cold buffer described above was added, and the mixture was filtered through a Millipore filter (0.45 µm; HAWP). The filter was washed with the buffer and the radioactivity remaining in the filter was measured by using a liquid scintillation counter. The IC50 values were determined as in Nagai et al. (2006) using the Hill equation.

E. coli ATCC25922 = test: Growth inhibition around wells on LB agar plates; assay type: cell-based, Escherichia coli; conditions: growth inhibition area around well
Experimental: (§3) From an overnight-grown culture of IH3080 on LB agar, a suspension of approx. 10^8 cells/ml was prepared in 0.9% NaCl. Aliquots of this suspension were then pipetted on the agar plates and the plates were gently shaken to spread the suspension evenly on the entire surface of the plate. Thereafter, the unabsorbed part of the suspension was removed by using a Pasteur pipette. After the surface had dried, small wells (diameter, 2 mm) were drilled on the plates (five wells per plate) by using a sterile sharp-edged narrow metal tube, single-use pipette tip, and vacuum suction. Samples (4 µl and 10 µl) of the peptide solution in 0.9% NaCl (at concentrations of 1 µg/ml and 0.1 µg/ml) were then pipetted to the wells and the sample fluids were allowed to absorb. Controls included 0.9% NaCl solution without the compound to be tested. The plates were then incubated for 18 h at 37°C whereafter the diameters of growth inhibition zones around each well were measured; the diameter of the well itself was […]. Finally, the diameters were converted to surface areas of growth inhibition (in square mm).
(§4) The susceptibility of eleven Gram-negative bacterial strains (nine different species) to NAB734 and polymyxin B was compared by using the susceptibility determination method described in Example 2. […]

K. oxytoca ATCC 13182 = test: Growth inhibition around wells on LB agar plates; assay type: cell-based, Klebsiella oxytoca; conditions: growth inhibition area around well
Experimental: as §3, §4

C. freundii ATCC8090 = test: Growth inhibition around wells on LB agar plates; assay type: cell-based, Citrobacter freundii; conditions: growth inhibition area around well
Experimental: as §3, §4

S. marcescens ATCC8100 = test: Growth inhibition around wells on LB agar plates; assay type: cell-based, Serratia marcescens; conditions: growth inhibition area around well
Experimental: as §3, §4

P. mirabilis ATCC29906 = test: Growth inhibition around wells on LB agar plates; assay type: cell-based, Proteus mirabilis; conditions: growth inhibition area around well
Experimental: as §3, §4

S. aureus ATCC 25923 = test: Growth inhibition around wells on LB agar plates; assay type: cell-based, Staphylococcus aureus; conditions: growth inhibition area around well
Experimental: as §3, §4

CCCCCCCC(=O)N[C@H](C(=O)N[C@@H](CC)C(=O)N[C@H]1CCNC(=O)[C@H]([C@@H](C)O)NC(=O)[C@H](CCN)NC(=O)[C@H](CCN)NC(=O)[C@H](CC(C)C)NC(=O)[C@@H](Cc2ccccc2)NC(=O)[C@H](CCN)NC1=O)[C@@H](C)O [NAB 7061, OA-Thr-Abu-cy[Dab-Dab-DPhe-Leu-Dab-Dab-Thr-]] (Octanoyl-T[Abu][Dab][Dab][dF]L[Dab][Dab]T; lactam 3-C)
MIC (µg/ml) of clarithromycin in the presence of 4 µg/ml of NAB 7061 (Ac. baumannii ATCC19606): […] | MIC (µg/ml) of rifampin in the presence of 4 µg/ml of NAB 7061 (Ac. baumannii ATCC19606): […] | Sensitization factor to clarithromycin (Ac. baumannii ATCC19606; 4 µg/ml of NAB 7061): […] | Sensitization factor to rifampin (Ac. baumannii ATCC19606; 4 µg/ml of NAB 7061): […] | MIC (µg/ml) of clarithromycin in the presence of 4 µg/ml of NAB 7061 (Ac. baumannii F263): […] | MIC (µg/ml) of rifampin in the presence of 4 µg/ml of NAB 7061 (Ac. baumannii F263): […] | Sensitization factor to clarithromycin (Ac. baumannii F263; 4 µg/ml of NAB 7061): […] | Sensitization factor to rifampin (Ac. baumannii F263; 4 µg/ml of NAB 7061): […] | MIC (µg/ml) of clarithromycin in the presence of 4 µg/ml of NAB 7061 (P. vulgaris ATCC13315): […] | MIC (µg/ml) of rifampin in the presence of 4 µg/ml of NAB 7061 (P. vulgaris ATCC13315): 1-1,5 µg/ml | Sensitization factor to clarithromycin (P. vulgaris ATCC13315; 4 µg/ml of NAB 7061): <2 | Sensitization factor to rifampin (P. vulgaris ATCC13315; 4 µg/ml of NAB 7061): <2 | MIC (µg/ml) of clarithromycin in the presence of 4 µg/ml of NAB 7061 (S. maltophilia ATCC17444): […] | MIC (µg/ml) of rifampin in the presence of 4 µg/ml of NAB 7061 (S. maltophilia ATCC17444): […] | Sensitization factor to clarithromycin (S. maltophilia ATCC17444; 4 µg/ml of NAB 7061): […] | Sensitization factor to rifampin (S. maltophilia ATCC17444; 4 µg/ml of NAB 7061): […] | MIC (µg/ml) of clarithromycin in the presence of 4 µg/ml of NAB 7061 (P. aeruginosa ATCC27853): […] | MIC (µg/ml) of rifampin in the presence of 4 µg/ml of NAB 7061 (P. aeruginosa ATCC27853): […] | Sensitization factor to clarithromycin (P. aeruginosa ATCC27853; 4 µg/ml of NAB 7061): […] | Sensitization factor to rifampin (P. aeruginosa ATCC27853; 4 µg/ml of NAB 7061): […] | MIC (µg/ml) of clarithromycin in the presence of 4 µg/ml of NAB 7061 (P. aeruginosa CCUG51971): […] | MIC (µg/ml) of rifampin in the presence of 4 µg/ml of NAB 7061 (P. aeruginosa CCUG51971): >32 µg/mL | Sensitization factor to clarithromycin (P. aeruginosa CCUG51971; 4 µg/ml of NAB 7061): <2 | Sensitization factor to rifampin (P. aeruginosa CCUG51971; 4 µg/ml of NAB 7061): <2 | MIC (µg/ml) of clarithromycin in the presence of 4 µg/ml of NAB 7061 (P. aeruginosa F58): […] | MIC (µg/ml) of rifampin in the presence of 4 µg/ml of NAB 7061 (P. aeruginosa F58): >32 µg/mL | Sensitization factor to clarithromycin (P. aeruginosa F58; 4 µg/ml of NAB 7061): <2 | Sensitization factor to rifampin (P. aeruginosa F58; 4 µg/ml of NAB 7061): <2 | MIC of rifampin in the presence of NAB7061 (4 µg/ml) [1]: ≤ 0.125 mg/L | resulting MIC values to clarithromycin [2]: ≤ 0.5 mg/L | resulting MIC values to rifampin [2]: ≤ 0.125 mg/L | pIC50 [3]: 3.73

Polymyxin B
Antibacterial activity 4 µg (E. coli ATCC25922; 4 µg): 95 square millimeters | Antibacterial activity 10 µg (E. coli ATCC25922; 10 µg): 133 square millimeters | Antibacterial activity 4 µg (K. oxytoca ATCC 13182; 4 µg): 79 square millimeters | Antibacterial activity 10 µg (K. oxytoca ATCC 13182; 10 µg): 104 square millimeters | Antibacterial activity 4 µg (C. freundii ATCC8090; 4 µg): 95 square millimeters | Antibacterial activity 10 µg (C. freundii ATCC8090; 10 µg): 154 square millimeters | Antibacterial activity 4 µg (S. marcescens ATCC8100; 4 µg): 0 square millimeters | Antibacterial activity 10 µg (S. marcescens ATCC8100; 10 µg): 0 square millimeters | Antibacterial activity 4 µg (P. mirabilis ATCC29906; 4 µg): 0 square millimeters | Antibacterial activity 10 µg (P. mirabilis ATCC29906; 10 µg): 0 square millimeters | Antibacterial activity 4 µg (S. aureus ATCC 25923; 4 µg): 0 square millimeters | Antibacterial activity 10 µg (S. aureus ATCC 25923; 10 µg): 0 square millimeters
